Source: patent US9890140B2, “Maleate salts of a quinazoline derivative useful as an antiangiogenic agent” (AstraZeneca AB, priority 2003, dated 2018)

Columns and labels:
[1] = test system: VEGF-stimulated proliferation of human umbilical vein endothelial cells (HUVEC); test: In vitro HUVEC proliferation assay, VEGF-stimulated; assay type: cell-based; conditions: read-out: IC50 for inhibition of VEGF-stimulated endothelial cell proliferation
Description: (b) In Vitro HUVEC Proliferation Assay
(§1) HUVEC cells were isolated in MCDB 131 (Gibco BRL)+7.5% v/v foetal calf serum (FCS) and were plated out (at passage 2 to 8), in MCDB 131+2% v/v FCS+3 μg/ml heparin+1 μg/ml hydrocortisone, at a concentration of 1000 cells/well in 96 well plates. After a minimum of 4 hours they were dosed with VEGF (3 ng/ml) and compound. The cultures were then incubated for 4 days at 37° C. with 7.5% CO2. On day 4 the cultures were pulsed with 1 μCi/well of tritiated-thymidine (Amersham product TRA 61) and incubated for 4 hours. The cells were harvested using a 96-well plate harvester (Tomtek) and then assayed for incorporation of tritium with a Beta plate counter. Incorporation of radioactivity into cells, expressed as cpm, was used to measure inhibition of growth factor-stimulated cell proliferation by compounds. This methodology was also used to assess compound effects versus basal HUVEC growth (i.e. endothelial cell proliferation in MCDB 131+2% v/v FCS […]+3 μg/ml heparin+1 μg/ml hydrocortisone without the addition of exogenous VEGF).

[2] = test system: basal HUVEC growth (without exogenous VEGF); test: In vitro HUVEC proliferation assay, basal growth; assay type: cell-based; conditions: Homo sapiens, no exogenous VEGF, read-out: IC50 for inhibition of basal endothelial cell proliferation
Description: as §1

[3] = test system: Calu-6 tumour xenograft; test: In vivo solid tumour disease model; set-up: species or system female athymic Swiss nu/nu mice; conditions: once-daily oral, 28 days
Description: (c) In Vivo Solid Tumour Disease Model This test measures the capacity of compounds to inhibit solid tumour growth. CaLu-6 tumour xenografts were established in the flank of female athymic Swiss nu/nu mice, by subcutaneous injection of 1×10^6 Calu-6 cells/mouse in 100 μl of a 50% (v/v) solution of Matrigel in serum free culture medium. […] Tumours were measured using vernier calipers and volumes were calculated as: (l×w)×√(l×w)×(π/6), where l is the longest diameter and w the diameter perpendicular to the longest. Test compounds were administered orally once daily for a minimum of 21 days, and control animals received compound diluent. Tumours were measured twice weekly. The level of growth inhibition was calculated by comparison of the mean tumour volume of the control group versus the treatment group using a Student T test and/or a Mann-Whitney Rank Sum Test. The inhibitory effect of compound treatment was considered significant when p<0.05.

[4] = Solid state stability of the free base on dehydration / micronisation (XRPD); assay type: physicochemical
Description: This is shown by a broadening of the peaks and formation of an amorphous 'hump'-see FIG. 4. […] The X-ray powder diffraction spectra were determined by mounting a sample of the crystalline salt on Siemens single silicon crystal (SSC) wafer mounts and spreading out the sample into a thin layer with the aid of a microscope slide. The sample was spun at 30 revolutions per minute (to improve counting statistics) and irradiated with X-rays generated by a copper long-fine focus tube operated at 40 kV and 40 mA with a wavelength of 1.5406 angstroms. The collimated X-ray source was passed through an automatic variable divergence slit set at […] and the reflected radiation directed through a 2 mm antiscatter slit and a 0.2 mm detector slit. The sample was exposed for 1 second per 0.02 degree 2-theta increment (continuous scan mode) over the range 2 degrees to 40 degrees 2-theta in theta-theta mode. The running time was 31 minutes and 41 seconds. The instrument was equipped with a scintillation counter as detector. Control and data capture was by means of a Dell Optiplex 686 NT 4.0 Workstation operating with Diffract+ software. Persons skilled in the art of X-ray powder diffraction will realise that the relative intensity of peaks can be affected by, for example, grains above 30 microns in size and non-unitary aspect ratios which may affect analysis of samples. […]

[5] = Dynamic vapour sorption, moisture content at 80% RH; assay type: physicochemical; conditions: 80% relative humidity
Description: Dynamic Vapour Sorption Analytical Instrument: Surface Measurements Systems Dynamic Vapour Sorption Analyser. About 5 mg of material contained in a quartz holder at 25° C. was subjected to humidified nitrogen at the following relative humidities (RH): 0, 20, 40, 60, 80, 95, 80, 60, 40, 20, 0% RH in duplicate.

[6] = Evidence of hydrate formation (vapour sorption or TGA); assay type: physicochemical; conditions: vapour sorption (hysteresis, water absorption) or TGA
Description: About 5 mg of material contained in a quartz holder at 25° C. was subjected to humidified nitrogen at the following relative humidities (RH): 0, 20, 40, 60, 80, 95, 80, 60, 40, 20, 0% RH in duplicate. Typically between 3 and 12 mg of material contained in a 70 μl alox (aluminium oxide) crucible was heated over the temperature range 25° C. to 325° C. at a constant heating rate of 10° C. per minute. A purge gas using helium was used—flow rate 50 ml per minute.

[7] = Evidence for polymorphism from DSC thermograms; assay type: physicochemical
Description: Analytical Instrument: Mettler DSC820e. Typically less than 5 mg of material contained in a 40 μl aluminium pan fitted with a pierced lid was heated over the temperature range 25° C. to 325° C. at a constant heating rate of 10° C. per minute. A purge gas using nitrogen was used—flow rate 100 ml per minute.

[8] = Crystallinity of AZD2171 salts; assay type: physicochemical

| Solid form after dehydration ([4]; heating to 100° C., FIG. 3) | Solid form after particle size reduction ([4]; micronisation, FIG. 4) | Moisture Content at 80% RH [5] [%] | Evidence of Hydrate Formation (Yes/No) [6] | No of Polymorphs [7] | Crystalline (Yes/No) [8] | Compound | IC50 [1] [nM] | IC50 [2] [nM] | Inhibition of growth of Calu-6 tumour xenograft ([3]; 1.5 mg/kg/day, P<0.01) [%] | Inhibition of growth of Calu-6 tumour xenograft ([3]; 3 mg/kg/day, P<0.0001) [%] | Inhibition of growth of Calu-6 tumour xenograft ([3]; 6 mg/kg/day, P<0.0001) [%] |
| --- | --- | --- | --- | --- | --- | --- | --- | --- | --- | --- | --- |
| becomes amorphous | amorphous material does indeed form | – | – | – | – | COc1cc2c(Oc3ccc4[nH]c(C)cc4c3F)ncnc2cc1OCCCN1CCCC1 [AZD2171, 4-((4-fluoro-2-methyl-1H-indol-5-yl)oxy)-6-methoxy-7-(3-(pyrrolidin-1-yl)propoxy)quinazoline] | 0.4 ± 0.2 | > 500 | 49 | 69 | 91 |
| – | – | 3.5 | No | ≧3 | Yes | Fumarate | – | – | – | – | – |
| – | – | – | Yes | ≧3 | Yes | Malonate | – | – | – | – | – |
